Reference: patent US20250002492A1, “COMPOSITIONS OF FOLATE ABSORPTION INHIBITORS AND METHODS THEREOF” (THE TEXAS A&M UNIVERSITY SYSTEM, priority 2023, published 2025)

Biological target: T1, Folate Uptake Transporter (PCFT) in Caco2 cells (Homo sapiens, UniProt Q96NT5)
T1 construct: These cells express high levels of the PCFT/SLC46A1 receptor; host or cells: Caco-2
T1 sequence (Q96NT5 1-459): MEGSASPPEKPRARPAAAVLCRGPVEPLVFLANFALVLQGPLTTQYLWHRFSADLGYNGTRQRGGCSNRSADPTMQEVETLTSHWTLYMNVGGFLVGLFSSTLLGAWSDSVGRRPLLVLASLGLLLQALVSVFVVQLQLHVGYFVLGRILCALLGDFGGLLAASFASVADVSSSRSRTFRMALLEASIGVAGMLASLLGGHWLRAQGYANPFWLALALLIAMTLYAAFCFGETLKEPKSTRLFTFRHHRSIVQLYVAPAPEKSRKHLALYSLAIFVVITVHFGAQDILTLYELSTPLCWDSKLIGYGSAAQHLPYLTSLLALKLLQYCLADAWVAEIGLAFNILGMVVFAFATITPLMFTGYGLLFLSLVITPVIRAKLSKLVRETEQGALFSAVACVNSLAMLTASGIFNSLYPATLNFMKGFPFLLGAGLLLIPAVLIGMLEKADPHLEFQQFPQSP
Assay: Folate uptake transporter inhibition in Caco2 cell line ([3H]-folic acid uptake)
Assay type: cell-based
Protocol: Cell plates were prepared using Caco-2 cell culture medium consisting of Dulbecco's Modified Eagle's Medium (DMEM) with high glucose and L-glutamine supplemented with: 10% FBS, 1× penicillin-streptomycin mixture and 1×non-essential amino acids (NEAA) and medium was incubated at 37° C., 5% CO2 for 0.5 hour. Plates were prepared for cell seeding. Caco-2 cells from American Type Culture Collection at passage 44 were cultivated in T-75 flasks in a cell culture incubator set at 37° C., 5% CO2, 95% relative humidity. Cells reached 80-90% confluence before detaching and splitting. Cultivated cells in T-75 flasks were rinsed with 5 mL PBS and aspirated off. Then, 3 mL trypsin/EDTA was added, and cells were incubated at 37° C. for approximately 5 minutes or until the cells detached and floated. Trypsin/EDTA was inactivate by adding excess serum containing medium. Cell suspension was removed and transferred to a conical tube and cells were pelleted by centrifugation at 120×g for 5 minutes. Cells were resuspended in seeding medium at a density of 3×10^4 cells/well in 24-well plates. The plate was incubated for 8-10 days. The medium was replaced every other day, beginning no sooner than 48 hours after initial plating.
The transport buffer (HBSS with 10 mM MES, pH 5.5) was prepared by weighing 1.952 g of MES and 0.35 g sodium hydrogen carbonate and adding into 900 mL of pure water followed by sonication to dissolve the content. Following the transfer of 100 mL of 10×HBSS into the solution. The solution was placed on a stirrer, the pH was slowly adjusted with hydrochloric acid to 5.5, and then the solution was filtered to get HBSS solution (with 10 mM MES, pH 5.5).
The [3H]-folic acid (10 nM) substrate solution was prepared using [3H]-folic acid (1 mCi/ml) diluted with pH 5.5 buffer. Next, the [3H]-folic acid (10 nM) substrate solution+test inhibitor (X μM) and the [3H]-folic acid (10 nM) substrate solution+positive control inhibitor (pemetrexed, 50 μM) were prepared. For the solution without inhibitor, DMSO was diluted with corresponding substrate solution to get the working incubation solution.
The pre-incubation solution was prepared by adding the same final concentration of test compound (X μM) and the known inhibitor (pemetrexed, 50 μM) in pH 5.5 buffer. For the solution without inhibitor, DMSO diluted with in pH 5.5 buffer was used as the vehicle control.
When the 8-10 day Caco-2 cultured cells reached confluence and were differentiated, they were ready to be used for transport studies. The Caco-2 plate was removed from the incubator, and the medium was removed from the 24-well Plates. Next, cells were washed 3 times with 300 μL of pre-warmed pH 5.5 buffer. Then, 300 μL of pre-incubation solution was added into each well and the plate was placed at 37° C. for 30 minutes. The assay was performed in duplicate. After 30 minutes pre-incubation, the pre-incubation solution was aspirated, and 300 μL of pre-warmed working incubation solution was added to start the transporter assay. After 6 minutes incubation, cells were washed by quickly adding/aspirating 300 μL of ice-cold pH 5.5 buffer 4 times. The pH 5.5 buffer was removed and 300 μL of pure water was added into each well. Freeze-thaw in liquid nitrogen and 37° C. incubator was repeated for 3 times to lyse cells. After, centrifugation at 3,300 g was performed for 30 seconds. Next, 50 μL of supernatant was transferred to Isoplate-96 Microplate. 200 μL of scintillation fluid was added to the 50 μL sample and radioactivity was measured by liquid scintillation counting in a MicroBeta 2 scintillation counter for 1 min/sample.
A BCA Kit was used to determine the protein content for each well. Bovine serum albumin at 2, 1, 0.5, 0.25, 0.125, 0.0625, 0.0313, 0.0156, 0.00781 and 0.00391 mg/mL was prepared in Phosphate Buffer Saline (PBS, pH 7.4). 10 μL of supernatant was mixed from the previous step with the same volume of PBS. […]

- inhibition at 50 µM (Caco-2, pH 5.5, test conc. 50 μM, [3H]-folic acid 10 nM, 30 min pre-incubation, 6 min incubation, read-out: Percentage inhibition (%)): 42.3%
- effect on folate transport / uptake (Caco-2 cells, 50 μM, pH 5.5): inhibit folate uptake
SMILES: CC(=O)N1CCC(C(=O)N2CCN3C(=O)c4cc(-c5ccccc5)ccc4NC(=O)C3C2)CC1 (centres unmarked) [MPOL_B_1, 2-(1-acetylpiperidine-4-carbonyl)-8-phenyl-1,3,4,12a-tetrahydrobenzo[e]pyrazino[1,2-a][1,4]diazepine-6,12(2H,11H)-dione]
